Values of other authors in patent US6716451B1 (Soft Gel Technologies, Inc., priority 1999, dated 2004).
Like-named read-outs stand apart in the source and are kept apart here.

Columns and labels:
[1] = system: human breast cancer cell; settings: in vitro
[2] = subjects taking at least 100 IU daily; more than 12,000 adults

Row | Compound | inhibition of growth of human breast cancer cells compared with Tamoxifen [1] | adverse effects (50 mg/day for 1 to 8.2 years, cardiovascular clinical studies) | adverse effects (oral 50 to 400 IU per day, double-blind clinical studies) | decrease in heart disease risk [2]
1 | CC(C)=CCC/C(C)=C/CC/C(C)=C/CC[C@]1(C)CCc2cc(O)c(C)c(C)c2O1 [γ-tocotrienol] | more effectively than the popular breast cancer drug, Tamoxifen | – | – | –
2 | Vitamin E | – | without any adverse effects | did not show any adverse effects | 40%
